Source: ChEMBL document CHEMBL3608206, “Phenolic 4-hydroxy and 3,5-dihydroxy derivatives of 3-phenoxyquinoxalin-2(1H)-one as potent aldose reductase inhibitors with antioxidant activity” (Bioorg Med Chem Lett, 2015)

test system: Brain; experiment: Antioxidant activity in rat brain assessed as inhibition of MDA production at 10 uM by TBARS assay relative to control; type: functional; conditions: not given

Compound	inhibition at 10 µM
O=C(O)Cn1c(=O)c(Oc2cc(O)cc(O)c2)nc2ccccc21	5.7%
O=C(O)Cn1c(=O)c(Oc2cc(O)cc(O)c2)nc2ccc(F)cc21	9.3%
O=C(O)Cn1c(=O)c(Oc2cc(O)cc(O)c2)nc2ccc(Cl)cc21	26.6%
Cc1c(C)c2c(c(C)c1O)CCC(C)(C(=O)O)O2 (stereo not drawn) [TROLOX]	90.1%
O=C(O)Cn1c(=O)c(Oc2ccc(O)cc2)nc2ccc(Cl)cc21	10.1%
O=C(O)Cn1c(=O)c(Oc2cc(O)cc(O)c2)nc2cc(Cl)ccc21	8.1%

target: Aldo-keto reductase family 1 member B1 (Rattus norvegicus, UniProt P07943); experiment: Inhibition of Wistar rat ALR2 using D,L-glyceraldehyde as substrate assessed as oxidation of NADPH preincubated for 10 mins followed by substrate addition measured for 4 mins by spectrophotometric analysis; conditions: not given

IC50	Compound
940 nM	O=C(O)Cn1c(=O)c(Oc2cc(O)cc(O)c2)nc2ccccc21
19.6 nM	O=C(O)Cn1c(=O)c(Oc2ccc(O)cc2)nc2cc(F)ccc21
566 nM	O=C(O)Cn1c(=O)c(Oc2cc(O)cc(O)c2)nc2ccc(Cl)cc21
374 nM	O=C(O)Cn1c(=O)c(Oc2ccc(O)cc2)nc2ccccc21
130 nM	O=C(O)Cn1c(=O)c(Oc2cc(O)cc(O)c2)nc2cc(F)ccc21
179 nM	O=C(O)Cn1c(=O)c(Oc2ccc(O)cc2)nc2ccc(Cl)cc21
982 nM	O=C(O)Cn1c(=O)c(Oc2cc(O)cc(O)c2)nc2cc(Cl)ccc21

test system: Brain; experiment: Antioxidant activity in rat brain assessed as inhibition of MDA production at 100 uM by TBARS assay relative to control; type: functional; conditions: not given

Compound	inhibition at 100 µM
O=C(O)Cn1c(=O)c(Oc2cc(O)cc(O)c2)nc2ccccc21	34.5%
O=C(O)Cn1c(=O)c(Oc2cc(O)cc(O)c2)nc2ccc(F)cc21	20.3%
O=C(O)Cn1c(=O)c(Oc2ccc(O)cc2)nc2cc(F)ccc21	14.3%
O=C(O)Cn1c(=O)c(Oc2cc(O)cc(O)c2)nc2ccc(Cl)cc21	55.3%
O=C(O)Cn1c(=O)c(Oc2ccc(O)cc2)nc2ccccc21	12.3%
O=C(O)Cn1c(=O)c(Oc2cc(O)cc(O)c2)nc2cc(F)ccc21	15.5%
Cc1c(C)c2c(c(C)c1O)CCC(C)(C(=O)O)O2 (stereo not drawn) [TROLOX]	71.3%
O=C(O)Cn1c(=O)c(Oc2ccc(O)cc2)nc2ccc(Cl)cc21	49.4%
O=C(O)Cn1c(=O)c(Oc2cc(O)cc(O)c2)nc2cc(Cl)ccc21	24.5%

test system: not listed separately; experiment: Antioxidant activity assessed as DPPH radical scavenging activity at 100 uM after 240 mins by spectrophotometric analysis relative to control; type: physicochemical; conditions: 4 h

Activity	Compound
67.4%	O=C(O)Cn1c(=O)c(Oc2cc(O)cc(O)c2)nc2ccccc21
38.2%	O=C(O)Cn1c(=O)c(Oc2cc(O)cc(O)c2)nc2ccc(F)cc21
23.7%	O=C(O)Cn1c(=O)c(Oc2ccc(O)cc2)nc2cc(F)ccc21
91.3%	O=C(O)Cn1c(=O)c(Oc2cc(O)cc(O)c2)nc2ccc(Cl)cc21
21.3%	O=C(O)Cn1c(=O)c(Oc2ccc(O)cc2)nc2ccccc21
25.4%	O=C(O)Cn1c(=O)c(Oc2cc(O)cc(O)c2)nc2cc(F)ccc21
96.7%	Cc1c(C)c2c(c(C)c1O)CCC(C)(C(=O)O)O2 (stereo not drawn) [TROLOX]
84.8%	O=C(O)Cn1c(=O)c(Oc2ccc(O)cc2)nc2ccc(Cl)cc21
56.5%	O=C(O)Cn1c(=O)c(Oc2cc(O)cc(O)c2)nc2cc(Cl)ccc21

target: Aldo-keto reductase family 1 member B1 (Rattus norvegicus) (UniProt P07943); experiment: Inhibition of Wistar rat ALR2 using D,L-glyceraldehyde as substrate assessed as oxidation of NADPH at 10 uM preincubated for 10 mins followed by substrate addition measured for 4 mins by spectrophotometric analysis relative to control; conditions: not given

inhibition	Compound
34%	O=C(O)Cn1c(=O)c(Oc2cc(O)cc(O)c2)nc2ccc(F)cc21

test system: not listed separately; experiment: Antioxidant activity assessed as DPPH radical scavenging activity at 50 uM after 240 mins by spectrophotometric analysis relative to control; type: physicochemical; conditions: 4 h

Activity	Compound
46.5%	O=C(O)Cn1c(=O)c(Oc2cc(O)cc(O)c2)nc2ccccc21
29.3%	O=C(O)Cn1c(=O)c(Oc2cc(O)cc(O)c2)nc2ccc(F)cc21
83.7%	O=C(O)Cn1c(=O)c(Oc2cc(O)cc(O)c2)nc2ccc(Cl)cc21
93.3%	Cc1c(C)c2c(c(C)c1O)CCC(C)(C(=O)O)O2 (stereo not drawn) [TROLOX]
47.3%	O=C(O)Cn1c(=O)c(Oc2ccc(O)cc2)nc2ccc(Cl)cc21
34.5%	O=C(O)Cn1c(=O)c(Oc2cc(O)cc(O)c2)nc2cc(Cl)ccc21
